The values below come from US20230295088A1, “INSULIN SENSITIZERS FOR THE TREATMENT OF DIABETES MELLITUS” (University of Iowa Research Foundation, priority 2020, published 2023).

In experiment [1] the test system is GLUT4 expressing tissues of DIO mice. Kind of experiment: PET/CT measurement of 18F-FDG uptake in DIO mice. The following applies: HFD supplemented with C59 for two weeks. The experiment is classed as in vivo, mouse. As to the method:
C59 improves glucose uptake in storage tissues of DIO mice. Since insulin resistance results in a failure to transport glucose from the circulation to tissues that can use it as a source of energy or store it, it was tested whether treating insulin resistant DIO mice with C59 results in an increase in glucose uptake in GLUT4 expressing tissues. For this, insulin resistant DIO mice (fed a HFD for 10 weeks) were fed HFD or HFD supplemented with C59 for two weeks before injection of ^18F-FDG and uptake of the radioactive glucose tracer was measured by PET/CT.

For experiment [2], the system named is Unc119b KO HBG4 cells. The experiment is described as follows: Insulin-stimulated GLUT4 translocation in Unc119b KO HBG4 cells. The experiment is classed as cell-based, mouse. As to the method:
(§1) Unc119 and Unc119b are important for the insulin sensitizing effect of C59. After identifying Unc119 proteins as molecular targets for C59, it was tested whether those proteins were responsible for the insulin sensitizing activity of C59. To this end Unc119 and Unc119b KO HBG4 cells were generated using CRISPR/Cas9 technology. For each of those cell lines two gRNA surrounding the start codon were used, thus resulting in a deletion of a fragment of the Unc119 genes that includes the ATG. Deletion of Unc119 and Unc119b in clonal cell lines were screened and verified by PCR (FIG. 4E). The effect of C59 on insulin-stimulated. […] To further test this finding, 3H-Deoxy-D-Glucose uptake in WT, Unc119 KO and Unc119b KO HBG4 cells treated with vehicle, insulin, C59 alone and C59 with insulin was measured.

Experiment [3] deals with GLUT4 translocation in HBG4 mice. Kind of experiment: In vivo GLUT4 translocation in HBG4 mice (IVIS luminescence). To be noted: DIO HBG4 mice treated for 2 weeks, insulin 10 minutes before substrate. Details: species or system mouse. As to the method:
C3 potentiates insulin action in primary adipocytes and in live mice. Using HBG4 mice, insulin stimulated GLUT4 translocation of endogenous GLUT4 was measured in primary skeletal muscle fibers and primary adipocytes. Enhancement of insulin-stimulated translocation of endogenous GLUT4 was also shown in primary adipocytes in the presence of C3. In parallel dishes, increased insulin-stimulated glucose uptake in HBG4 primary adipocyte treated with C3 was found. […] To determine if the HBG4 mouse can be used to measure GLUT4 translocation in vivo, HBG4 mice were pretreated with daily IP injections of vehicle or 50 mg/Kg C3 for 3 days. On the day of the experiment, mice were injected with vehicle or insulin IP followed by a subcutaneous injection of LgBiT and substrate around the leg muscles. Mice were then anesthetized and placed into an IVIS system to measure luminescence. […] Baseline signal was detected in vehicle and C3 treated HBG4 mice. […]
DIO HBG4 mice were treated with vehicle or C59 for 2 weeks and injected i.v. with an adenovirus coding for a secreted form of LgBiT (allowing LgBiT production and secretion predominantly by the liver into the circulation) 2 days prior to the experiment. Animal were then injected with saline or insulin 10 minutes before i.v. injection of substrate and luminescence imaging using an IVIS system.

The next experiment deals with T1, Unc119b (Mus musculus, UniProt Q8C4B4).
T1 construct: endogenous in cells
T1 sequence (Q8C4B4 whole entry): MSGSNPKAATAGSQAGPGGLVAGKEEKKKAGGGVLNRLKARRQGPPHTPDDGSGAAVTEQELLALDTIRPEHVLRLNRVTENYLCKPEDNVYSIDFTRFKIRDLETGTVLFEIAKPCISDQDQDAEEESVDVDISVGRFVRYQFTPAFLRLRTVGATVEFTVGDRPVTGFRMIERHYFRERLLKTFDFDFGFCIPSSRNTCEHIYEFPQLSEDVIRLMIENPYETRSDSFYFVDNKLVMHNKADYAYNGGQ
Kind of experiment: Proteome Integral Solubility Alteration (PISA) assay, Unc119b. Also noted: dose or concentration left out as unconfirmed. It counts as binding. The source says:
(§2) Identification of the molecular target of C59. Since the discovery of C59 as an insulin sensitizer was achieved using a phenotypic screen, the molecular target of the compound was unknown. To identify the target, a Proteome Integral Solubility Alteration (PISA) assay was used. […] To measure the shift in thermal stability, constructs coding for Unc119-HiBiT and Unc119b-HiBit were generated, thus allowing the quantitative detection of those proteins by adding LgBiT and furimazin to the lysates and measuring luminescence. Crude extract from cells transfected with Unc119-HiBiT or Unc119b-HiBiT, were incubated with DMSO or C59 for 10 minutes, aliquoted, heated for 3 minutes at the indicated temperature and allowed to cool down to room temperature before adding LgBiT and furimazin and reading luminescence on a plate reader.

Another experiment deals with T2, Unc119 (Mus musculus, UniProt Q9Z2R6).
T2 construct: endogenous in cells
The experiment is described as follows: Proteome Integral Solubility Alteration (PISA) assay, Unc119. It counts as binding. Details: dose or concentration left out as unconfirmed.
Text: as §2

In another experiment the target is T3, PPARg (Homo sapiens, UniProt P37231).
T3 sequence (P37231 1-505): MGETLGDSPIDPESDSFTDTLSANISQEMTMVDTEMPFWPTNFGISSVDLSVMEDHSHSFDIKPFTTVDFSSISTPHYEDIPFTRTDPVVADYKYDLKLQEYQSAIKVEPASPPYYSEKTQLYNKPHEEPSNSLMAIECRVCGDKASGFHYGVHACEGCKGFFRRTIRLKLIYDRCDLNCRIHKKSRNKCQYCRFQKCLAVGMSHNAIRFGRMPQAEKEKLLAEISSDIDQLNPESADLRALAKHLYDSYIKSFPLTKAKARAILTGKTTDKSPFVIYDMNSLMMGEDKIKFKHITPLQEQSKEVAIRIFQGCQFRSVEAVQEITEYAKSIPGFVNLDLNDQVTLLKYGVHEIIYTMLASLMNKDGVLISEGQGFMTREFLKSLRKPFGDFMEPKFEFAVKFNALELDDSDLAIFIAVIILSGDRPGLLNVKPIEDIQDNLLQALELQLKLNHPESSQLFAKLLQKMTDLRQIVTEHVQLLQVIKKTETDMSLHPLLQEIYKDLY
The experiment is described as follows: Luminescent PPARg reporter assay in vitro. It counts as cell-based. The text has this:
C3 is not liver toxic and acts through a different mechanism than TZDs. […] Deleterious side effect or TZDs are due to their agonism of PPARg.
In general terms: In a reporter assay the amount or activity of a reporter protein is the signal.

The test system of the next experiment is lean mice. Kind of experiment: Glucose tolerance test in lean mice. The following applies: single injection before GTT. The experiment is classed as in vivo, mouse. As to the method: C3 improves glucose tolerance in lean and obese insulin resistant mice. To test whether C3 improves glucose handling, lean mice were injected with vehicle or C3 30 minutes before performing a glucose tolerance test. […] To further determine if C3 can reverse glucose intolerance, WT mice were made insulin-resistant by feeding them a high fat diet (HFD) for a period of 10 weeks. Diet induced obese (DIO) mice were then injected with vehicle or C3 for 2 weeks while remaining on HFD. […] Together those results establish in vivo efficacy of C3 for the treatment of insulin resistance.

For experiment [4], the system named is Unc119b KO HBG4 cells. The experiment is described as follows: 3H-Deoxy-D-Glucose uptake in Unc119b KO HBG4 cells. It counts as cell-based, mouse. On the procedure: as §1

“Also recorded” adds a separate entry of the source.

Regarding `O=C(Nc1ccc(Cl)c(Cl)c1)C12CC3CC(CC(C3)C1)C2` [Compound C59], in experiment [1], the “18F-FDG uptake in BAT” value is recorded as “significantly increased”, the “18F-FDG uptake in WAT” value is listed as “significantly increased”, the “18F-FDG uptake in heart tissues” value was “significantly increased” and the “18F-FDG uptake in skeletal muscles” value is recorded as “significantly increased”. Also, the “insulin-stimulated GLUT4 translocation” value in the experiment on Unc119b KO HBG4 cells [2] is recorded as “failed to enhance”. Moreover, the “insulin-stimulated GLUT4 translocation in vivo” value in experiment [3] is “very significantly improved”. Besides, the “thermostability of Unc119b (PISA)” value at Unc119b (live cells, vs DMSO and C29) is on record as “increased the thermostability; also recorded: concentration dependent increased thermostability”. Moreover, on Unc119b (lysates (crude extract)), the “thermostability of Unc119b (PISA)” value is “increased the thermostability”. Besides, at Unc119 (live cells, vs DMSO and C29), the “thermostability of Unc119 (PISA)” value is “increased the thermostability; also recorded: concentration dependent increased thermostability”. In addition, at Unc119 (lysates (crude extract)), the “thermostability of Unc119 (PISA)” value was “increased the thermostability”. Moreover, the PPARg agonist activity entry at PPARg is “neither C3 nor C59 have PPARγ agonist activity”. In addition, the “glucose clearance in glucose tolerance test” value in the experiment on lean mice is “improvement”. In addition, the “3H-Deoxy-D-Glucose uptake, compound alone” value in the experiment on Unc119b KO HBG4 cells [4] (no insulin) was “did not stimulate”. Further, the “insulin stimulated 3H-Deoxy-D-Glucose uptake” value in the experiment on Unc119b KO HBG4 cells [4] (with insulin) is recorded as “failed to do so”.
